Assay results taken from patent US7414048B2, “4,5-dihydro-isoxazole derivatives and their pharmaceutical use” (Janssen Pharmaceutica, N.V., priority 1998, dated 2008).

System: T cell blast formation in human blood
Experiment: In vitro inhibition of T cell blast formation in human blood (human whole blood blast formation, PHA stimulated, flow cytometry)
Format: cell-based
Conditions: 72 hours, mean where multiple measurements
Procedure: Cells are collected after a 72 hours culture period at 37° C., supernatant is removed by centrifugation and red blood cells are lysed by a hypotonic buffer. The remaining white blood cells are collected in PBS containing propidium iodide. The blast formation is analyzed using a benchtop flow cytometer (Cytoron, Ortho) equipped with an argon-ion laser. […] When multiple measurements were performed, a mean value was calculated for the percentage inhibition of T cell blast formation.

[1] = Test Dose 1 × 10^−6 (unit not given)
[2] = Test Dose 3 × 10^−7 (unit not given)
[3] = Test Dose 1 × 10^−7 (unit not given)
[4] = Test Dose 1 × 10^−5 (unit not given)

| SMILES | % Inhibition of T cell blast formation [1] [%] | % Inhibition of T cell blast formation [2] [%] | further results |
| --- | --- | --- | --- |
| COc1ccc(CNC(=O)c2ccc(NC(=O)C3CC(c4cccnc4)=NO3)cc2)cc1 (stereo not drawn) [Compound 290] | 67 |  |  |
| CC(C#N)(c1ccc(F)cc1)c1ccc(NC(=O)C2CC(c3cccnc3)=NO2)cc1F (stereo not drawn) [Compound 39] | 67 |  |  |
| O=C(Nc1cccnc1)c1ccc(NC(=O)C2CC(c3cccnc3)=NO2)cc1 (stereo not drawn) [Compound 263] | 59 |  |  |
| COc1cccc(C(=O)c2ccc(NC(=O)C3CC(c4cccnc4)=NO3)cc2)c1 (stereo not drawn) [Compound 9] | 71 |  |  |
| O=C(c1ccc(NC(=O)C2CC(c3cccnc3)=NO2)cc1)c1c(F)cccc1F (stereo not drawn) [Compound 385] |  | 69 |  |
| O=C(Nc1ccc(C(=NO)c2ccncc2)cc1)C1CC(c2cccnc2)=NO1 (stereo not drawn) [Compound 428] |  |  | % Inhibition of T cell blast formation [3]: 57% |
| O.O=C(c1ccccc1)c1ccc(NC(=O)[C@@H]2CC(c3cccnc3)=NO2)cc1 [Compound 491, (S)-N-(4-benzoylphenyl)-4,5-dihydro-3-(3-pyridinyl)-5-isoxazolecarboxamide (1:1) monohydrate] |  |  | % Inhibition of T cell blast formation [3]: 70% |
| Cc1cc(NC(c2ccccc2)c2ccc(NC(=O)C3CC(c4cccnc4)=NO3)cc2)no1 (stereo not drawn) [Compound 162] |  | 46 |  |
| O=C(Nc1ccc(C(C(=O)NCCN2CCOCC2)c2ccccc2)cc1)C1CC(c2cccnc2)=NO1 (stereo not drawn) [Compound 325] |  | 43 |  |
| COc1cc(S(N)(=O)=O)ccc1NC(c1ccccc1)c1ccc(NC(=O)C2CC(c3cccnc3)=NO2)cc1 (stereo not drawn) [Compound 119] | 54 |  |  |
| NC(=O)c1ccccc1NC(c1ccccc1)c1ccc(NC(=O)C2CC(c3cccnc3)=NO2)cc1 (stereo not drawn) [Compound 192] | 72 |  |  |
| Cn1nc(-c2ccc(NC(=O)C3CC(c4cccnc4)=NO3)cc2)c2ccc(F)cc21 (stereo not drawn) [Compound 465] |  |  | % Inhibition of T cell blast formation [4]: 83% |
| COc1ccc(OC)c(C(=NO)c2ccc(NC(=O)C3CC(c4cccnc4)=NO3)cc2)c1 (stereo not drawn) [Compound 440] |  |  | % Inhibition of T cell blast formation [3]: 77% |
| O=C(NCCc1ccccc1)c1ccc(NC(=O)C2CC(c3cccnc3)=NO2)cc1 (stereo not drawn) [Compound 258] | 59 |  |  |
| O=C(c1ccc(NC(=O)C2CC(c3cccnc3)=NO2)cc1)c1ccc2ccccc2n1 (stereo not drawn) [Compound 392] | 80 |  |  |
| O=C(c1ccc(NC(=O)C2CC(c3cccnc3)=NO2)cc1)c1ccccn1 (single isomer, unassigned) [Compound 394] | 84 |  |  |
| O=C(c1ccc(NC(=O)C2CC(c3cccnc3)=NO2)cc1)c1cccc(F)c1 (stereo not drawn) [Compound 12] | 83 |  |  |
| COc1cc(CNC(=O)c2ccc(NC(=O)C3CC(c4cccnc4)=NO3)cc2)cc(OC)c1OC (stereo not drawn) [Compound 281] | 74 |  |  |
| O=C(c1ccc(NC(=O)C2CC(c3cccnc3)=NO2)cc1)c1ccc(OC(F)(F)F)cc1 (stereo not drawn) [Compound 384] |  | 68 |  |
| CC(=O)Nc1ccccc1NC(c1ccccc1)c1ccc(NC(=O)C2CC(c3cccnc3)=NO2)cc1 (stereo not drawn) [Compound 174] | 42 |  |  |
| O=C(Nc1ccc(C(O)(Cc2cccnc2)c2ccccc2)cc1)C1CC(c2cccnc2)=NO1 (stereo not drawn) [Compound 73] |  | 67 |  |
| CCCC(=O)NC(c1ccccc1)c1ccc(NC(=O)C2CC(c3cccnc3)=NO2)cc1 (stereo not drawn) [Compound 156] | 56 |  |  |
| O=C(Nc1ccc(-c2noc3cc(F)ccc23)cc1)C1CC(c2cccnc2)=NO1 (stereo not drawn) [Compound 466] |  |  | % Inhibition of T cell blast formation [4]: 82% |
| Cn1cnc2cc(NC(c3ccccc3)c3ccc(NC(=O)C4CC(c5cccnc5)=NO4)cc3)ccc21 (stereo not drawn) [Compound 101] | 70 |  |  |

| SMILES | % Inhibition of T cell blast formation [1] [%] | % Inhibition of T cell blast formation [2] [%] | further results |
| --- | --- | --- | --- |
| O=C(NCc1cccc(C(F)(F)F)c1)c1ccc(NC(=O)C2CC(c3cccnc3)=NO2)cc1 (stereo not drawn) [Compound 288] | 53 |  |  |
| O=C(c1ccc(NC(=O)C2CC(c3cccnc3)=NO2)cc1)c1cccnc1 (stereo not drawn) [Compound 387] |  | 78 |  |
| CC(C)OC(=O)OC(c1ccccc1)c1ccc(NC(=O)[C@@H]2CC(c3cccnc3)=NO2)cc1 (stereo partly drawn) [Compound 508, [5S(A)]-[4-[[[4,5-dihydro-3-(3-pyridinyl)-5-isoxazolyl]carbonyl]amino]phenyl]phenylmethyl 1-methylethyl carbonic acid (ester)] |  | 70 |  |
| CCOc1ccc(C)c(NC(c2ccccc2)c2ccc(NC(=O)C3CC(c4cccnc4)=NO3)cc2)c1 (stereo not drawn) [Compound 172] | 35 |  |  |
| COc1ccc(C(=NO)c2ccc(NC(=O)C3CC(c4cccnc4)=NO3)cc2)cc1OC (stereo not drawn) [Compound 437] |  | 75 |  |
| CC(C)OC(c1ccccc1)c1ccc(NC(=O)C2CC(c3cccnc3)=NO2)cc1.Cl (stereo not drawn) [Compound 418] | 75 |  |  |
| COc1ccccc1C(=NO)c1ccc(NC(=O)C2CC(c3cccnc3)=NO2)cc1 (stereo not drawn) [Compound 434] |  |  | % Inhibition of T cell blast formation [3]: 83% |
| O=C(c1ccc(NC(=O)C2CC(c3cccnc3)=NO2)cc1)c1cccs1 (stereo not drawn) [Compound 490] | 58 |  |  |
| NC(c1ccccc1)c1ccc(NC(=O)[C@@H]2CC(c3cccnc3)=NO2)cc1 (stereo partly drawn) [Compound 205, [5S-(A)]-N-[4-(aminophenylmethyl)phenyl]4,5-dihydro-3-(3-pyridinyl)-5-isoxazolecarboxamide] | 73 |  |  |
| CC(C)(NC(=O)c1ccc(NC(=O)C2CC(c3cccnc3)=NO2)cc1)c1ccccc1 (stereo not drawn) [Compound 259] | 51 |  |  |
| O=C(Nc1ccc(C(Nc2ccccc2)c2ccccc2)cc1)C1CC(c2cccnc2)=NO1 (stereo not drawn) [Compound 113] |  | 37 |  |
| O=C(Nc1ccc(Nc2ccccc2)cc1)C1CC(c2cccnc2)=NO1 (stereo not drawn) [Compound 377] | 85 |  |  |
| O=C(Nc1ccc(C(O)c2ccccc2)cc1)[C@@H]1CC(c2cccnc2)=NO1 (stereo partly drawn) [Compound 412] |  | 79 |  |
| O=C(/C=C/c1ccc2c(c1)OCO2)c1ccc(NC(=O)C2CC(c3cccnc3)=NO2)cc1 (racemic) [Compound 469] |  | 65 |  |
| CN(CC(N)=O)C(c1ccccc1)c1ccc(NC(=O)C2CC(c3cccnc3)=NO2)cc1 (stereo not drawn) [Compound 163] |  | 56 |  |
| O=C(CCc1ccccc1)c1ccc(NC(=O)C2CC(c3cccnc3)=NO2)cc1 (stereo not drawn) [Compound 380] | 67 |  |  |
| O=C(c1ccc(NC(=O)C2CC(c3cccnc3)=NO2)cc1)c1ccc2c(c1)OCO2 (stereo not drawn) [Compound 389] |  | 59 |  |
| COC(=O)OC(C#N)(c1ccccc1)c1ccc(NC(=O)C2CC(c3cccnc3)=NO2)cc1 (stereo not drawn) [Compound 524] | 81 |  |  |
| O=C(Nc1ccc(C(=NO)c2ccc3c(c2)OCO3)cc1)C1CC(c2cccnc2)=NO1 (stereo not drawn) [Compound 429] | 86 |  |  |
| O=C(Cc1ccccc1)NC(c1ccccc1)c1ccc(NC(=O)C2CC(c3cccnc3)=NO2)cc1 (stereo not drawn) [Compound 166] | 66 |  |  |
| O=C(Nc1ccc(C(=O)N2CCC(c3ccccc3)CC2)cc1)C1CC(c2cccnc2)=NO1 (stereo not drawn) [Compound 307] |  | 41 |  |
| CN(C)C(=O)c1ccc(CNC(=O)c2ccc(NC(=O)C3CC(c4cccnc4)=NO3)cc2)cc1 (stereo not drawn) [Compound 426] | 82 | 65 |  |
| O=C(Nc1ccc(C(NC2CCN(Cc3ccccc3)CC2)c2ccccc2)cc1)C1CC(c2cccnc2)=NO1 (stereo not drawn) [Compound 104] | 60 |  |  |
